# Where two headings read alike, the source gives them in different places.
# Experiments:
# HtrA1 [1] = target: HtrA1 (Homo sapiens, UniProt Q92743); assay: HtrA1 enzymatic activity with p-NA substrate; assay type: biochemical; settings: 25 μM Cytochalasin E, preincubated 10 minutes at 37° C., 0.5 mM p-NA substrate, measured 70 minutes at 405 nm
# Experimental: HtrA1 activity was determined with a p-NA substrate. HtrA1 was incubated with either DMSO alone or 25 μM Cytochalasin E that was dissolved in DMSO. Reaction was measured spectrophometrically for 70 minutes at 37° C. at 405 nm.
# Enzymatic activity of HtrA1 was assayed using acyl p-nitroanilide (p-NA) substrate FANQHLCGSHLVEA-p-NA. HtrA1 (5 μg) was preincubated with Cytochalasin E (25 μM) for 10 minutes at 37° C. Reaction was initiated by adding p-NA substrate at a final concentration of 0.5 mM. The volume of each reaction was 100 μl in 50 mM Tris-HCl pH 8. Reaction was measured continuously in a spectrophotometer for 70 minutes at 37° C. at 405 nm.
# cells = settings: cited from earlier work
# [2] = tested on: HtrA1 expression in HCT116 and SW480 cells; assay: HtrA1 expression by quantitative real-time PCR after 5-Aza-dC and TSA treatment; assay type: cell-based, human; settings: HCT116 and SW480 cancer cells treated with 5-Aza-dC (5 μM and 10 μM, 56 h) then 400 nM TSA (16 h) vs solvent only
# Experimental: Expression of HtrA1 in HCT116 and SW480 cells treated with 5-Aza-dC and TSA. Cells were treated with 5-Aza-dC and TSA or solvent only. RNA was extracted from the cells followed by reverse transcription. cDNA was analyzed by quantitative real-time PCR.
# Cells were seeded at a density of 5×10^5/60 mm dish and allowed to attach over 24 h in a 37° C. incubator in a humified atmosphere with 5% CO2. 5-aza-2′-deoxycytidine was solved in 50% acetic acid. It was added to the medium for a final concentration ranging from 0 to 10 μM for 72 h. At every 24 h interval, fresh medium containing the drug was added. Cells were incubated in a 37° C. incubator in a humified atmosphere with 5% CO2. […]
# At the end of the treatment cells were washed twice with PBS and RNA was isolated for analysis of HtrA1 expression using quantitative Real-Time-PCR. […]
# Quantitative Real-Time PCR was performed on the RotorGene3000 (Corbett Life Science) using Absolute QPCR SYBR Green Mix (ABgene) according to the manufacturer's instructions. 1 μl of cDNA, 12.5 μl Absolute QPCR SYBR Green Mix and 400 nM of each primer were used for the quantitative real-time PCR reaction. […]
# The relative gene expression level of HtrA1 was calculated relative to the GAPDH and PPIA genes according to the method of Pfaffl (Pfaffl Nucleic Acids Res 29:e45 (2001)).
# SW480 cells = assay: Polyploidy of SW480 cells depleted for HtrA1 (FACS, karyotyping); assay type: cell-based, human
# Experimental: A) Polyploidy of SW480 cells depleted for HtrA1/FACS analysis • SW480 (colon cancer) cells were transduced with a shRNA against HtrA1. After some passages cells were analyzed by propidium iodide staining for their DNA content. Gate M1 corresponds to a DNA content of 2n, gate M3 corresponds to a DNA content of 4n and gate M5 corresponds to a DNA content of 8n. […] B) Polyploidy of SW480 cells depleted for HtrA 1/karyo-typing • Metaphase chromosomes of SW480 cell lines transduced with plko empty vector and plko vector containing a shRNA against HtrA1.
# Cells were harvested by treatment with trypsin/EDTA. Cells were centrifuged for 5 minutes at 1700 g and 4° C. The pellet was resuspended and washed in 1 ml PBS. Cells were centrifuged again for 5 minutes at 1700 g and 4° C. The supernatant was discarded and the pellet was resuspended in 100 μl PBS. […] After addition of 5 μl RNase A (10 mg/ml) and 15 μl propidium iodide (2 mg/ml, Sigma #P4170), cells were incubated in the dark at 4° C. for 60 minutes and then analysed at the flow cytometer (FACScalibur, BD biosciences) […]
# Cell suspensions were dropped onto pre-cleaned, wet, ice-cold glass microscope slides to obtain good spreading of the chromosome sets. […] Intact metaphase cells (those that were not disrupted during the preparation step) were counted for their chromosome numbers at 1000 fold magnification (oil-immersion).
# p21 = p21 RNA level by quantitative RT-PCR after shRNA against HtrA1; assay type: cell-based, human
# Experimental: (§1) Analysis of HtrA1 and p21 expression in U373 (astrocytoma) and SW480 (colon cancer) cells transduced with an shRNA against HtrA1 or an empty vector control. The HtrA1- and p21-RNA level were analysed by quantitative RT-PCR.
# (§2) The cell line SW480 derived from human colon adenocarcinoma (DMSZ no. ACC 313) and the cell line U373 MG derived from human glioblastoma astrocytoma (ECACC no. 89081403) were cultured in DMEM (Gibco, Invitrogen) supplemented with 10% fetal bovine serum (FBS) and 1% penicillin-streptomycin at 5% CO2 and 37° C. The media for the stable transduced SW480 cell lines additionally contain 1.8 μg/ml puromycin.
# (§3) 4×10^5 SW480 cells/well were seeded into a six-well plate. After two days the six-well plate was 80% confluent and RNA was extracted by using total RNA isolation kit (Macherey-Nagel). RNA was purified with NucleoSpin RNAII columns (Macherey-Nagel) according to the procedure by the manufacturer. […]
# (§4) Quantitative RT-PCR was done with Platinum SYBR Green qPCR-superMix-UDG-kit (Invitrogen) with Rotor-Gene RG3000 from Corbett Research. […]
# (§5) The total reaction volume was of 25 μl, containing 12.5 μl SYBR Green PCR Master Mix (Invitrogen), 1 μl Primer (4.5 μM each) and 4 μl cDNA (20 ng). […] Melting curve was measured every 5 seconds from 50° C. to 99° C. Gene expression ratios for each sample were calculated as described (Pfaffl, Nucleic Acids Res, 29:e45 (2001)). […]
# HtrA1 [3] = assay: HtrA1 RNA level by quantitative RT-PCR after shRNA transduction; assay type: cell-based, human; settings: U373 and SW480 cells expressing the shRNA vs empty vector control
# Experimental: as §1, §2, §3, §4, §5
# Sequence of HtrA1 (Homo sapiens, UniProt Q92743) (Q92743 23-480): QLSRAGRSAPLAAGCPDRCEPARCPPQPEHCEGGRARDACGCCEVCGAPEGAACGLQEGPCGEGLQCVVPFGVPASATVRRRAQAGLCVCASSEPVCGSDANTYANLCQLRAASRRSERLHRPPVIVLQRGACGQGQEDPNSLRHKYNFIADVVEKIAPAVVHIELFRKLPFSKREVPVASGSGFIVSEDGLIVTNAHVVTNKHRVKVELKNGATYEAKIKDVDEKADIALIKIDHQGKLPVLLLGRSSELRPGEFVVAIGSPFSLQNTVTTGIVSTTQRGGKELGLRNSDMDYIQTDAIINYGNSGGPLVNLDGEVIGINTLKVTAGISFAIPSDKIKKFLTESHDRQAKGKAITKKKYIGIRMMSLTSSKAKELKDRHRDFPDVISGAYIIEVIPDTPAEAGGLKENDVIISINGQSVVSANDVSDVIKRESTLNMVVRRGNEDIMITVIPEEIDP
molecule,measurement,setting,value
C[C@H]1C/C=C/[C@H]2[C@@H]3O[C@]3(C)[C@@H](C)[C@H]3[C@H](Cc4ccccc4)NC(=O)[C@]32OC(=O)O/C=C/[C@@](C)(O)C1=O [Cytochalasin E],HtrA1 activity inhibition,HtrA1 [1],potent HtrA1 inhibitor
same,HtrA1 activity inhibition,HtrA1 [1]; listed as cytochalasin E,efficiently inhibits HtrA1
C=C1[C@@H](C)[C@H]2[C@H](Cc3ccccc3)NC(=O)[C@]23OC(=O)/C=C/[C@H](O)CCC[C@@H](C)C/C=C/[C@H]3[C@@H]1O [Cytochalasin B],p21 induction and cell cycle arrest,cells; high amounts,induce p21 and cell cycle arrest
same,cell cycle arrest,cells; large amounts (10 μg/ml),cell cycle arrest via p21
same,polyploidy,cells; large amounts (10 μg/ml),cause polyploidy
same,cell cycle arrest,cells; low doses (0.5 μg/ml),no cell cycle arrest
same,polyploidy,cells; low doses (0.5 μg/ml),also cause polyploidy
same,polyploidy,"cells; no concentration stated, by inhibition of actin polymerisation",causes polyploidy
"Nc1ncn([C@H]2C[C@H](O)[C@@H](CO)O2)c(=O)n1 [5-Aza-dC, 5-Aza-2′-deoxycytidine]",HtrA1 expression,[2],large increase in HtrA1 expression
"CC(/C=C/C(=O)NO)=C\[C@@H](C)C(=O)c1ccc(N(C)C)cc1 [TSA, Trichostatin A]",HtrA1 expression,[2],large increase in HtrA1 expression
"shRNA against HtrA1: hairpin sequence (Seq. ID. No 25/26) in lentiviral plko vector, knocks down HtrA1 (nucleic acid) sense: CCGGGATCTCAGGAGCGTATATATTCTCGAGAATATATACGCTCCTGAGATCTTTTTG antisense: CTAGAGTCCTCGCATATATAAGAGCTCTTATATATGCGAGGACTCTAGAAAAACTTAA",DNA content by propidium iodide staining (FACS),SW480 cells; SW480 cells vs empty vector,shift of the main peak from 2n to 4n and a shift of the smaller peak from 4n to 8n
same,polyploidy by karyotyping of metaphase chromosomes,SW480 cells; SW480 cells vs empty vector control,higher grade of polyploidy
same,p21 mRNA levels downregulated by a factor of,p21; HtrA1 expressed at much lower levels by shRNA,10
same,P21 level down-regulated,"p21; both cell lines (U373, SW480) expressing the shRNA against HtrA1",90%
same,HtrA1 level downregulated,HtrA1 [3],more than 90%
